# Patent US9351494B2, “Honeybee repellents and uses thereof” (Inscent, Inc., priority 2013, dated 2016)
# Experiments:
# OBP2 = assay: fluorescent-quench, ligand-protein-binding assay (OBP2 binding); parameters: species or system Apis mellifera
# Source text: To identify a honeybee repellent disclosed herein, candidate compounds were screened based upon the fact that 2-heptanone is an established repellent of bees. 2-heptanone is thought to mediate its behavioral response through binding to a specific odorant-binding protein called OBP2. Therefore compounds that bind OBP2 have the potential to act as odor “mimics” of 2-heptanone. By utilizing a fluorescent-quench, ligand-protein-binding assay, 30,000 compounds from the […]® library (ChemBridge Corp., San Diego, Calif.), a chemical library, were screened and over 150 candidate compounds were isolated that bind OBP2 (Table 1). Such assays are generally known in the art. See, e.g., Briand, et al., Ligand-Binding Properties and Structural Characterization of a Novel Rat Odorant-Binding Protein Variant, Eur. J. Biochem. 267(10): 3079-3089 (2000); Briand, et al., Ligand Binding and Physico-Chemical Properties of ASP2, A Recombinant Odorant-Binding Protein From Honeybee (Apis mellifera L.), Eur. J. Biochem. 268(3): 752-760 (2001); Briand, et al., Characterization of a Chemosensory Protein (ASP3c) from Honeybee (Apis mellifera L.) as a Brood Pheromone Carrier, Eur. J. Biochem. 269(18): 4586-4596 (2002), each of which is hereby incorporated by reference in its entirety.
# [1] = tested on: Apis mellifera Carniolan foraging worker honeybees; assay: proboscis extension response (PER) assay with bees conditioned to 2-heptanone; type: in vivo; settings: for 2-heptanone positive bees testing positive to compound: PER, compound 0.5% on filter paper, 4 seconds exposure, only bees giving a PER with 2-heptanone but not with negative controls counted
# Procedure: To determine whether a living honeybee can recognize a candidate compound, these compounds were tested using a proboscis extension response (PER) assay using classical conditioning approaches. Proboscis extension response conditioning is a case of appetitive learning, in which bees learn to associate odor stimuli with sucrose reward in the laboratory. In this case, bees were conditioned to produce a PER to 2-heptanone as the conditioned stimulus and a sugar reward as the unconditioned stimulus. These trained bees were then exposed to an odor pulse of a candidate compound to test whether a candidate compound would also produce a PER. If the candidate compound “mimics” 2-heptanone then the honeybee will extend its proboscis. For conditioning procedures, Apis mellifera Carniolan foraging worker honeybees were obtained from a local apiary (typically 60 bees per shipment). The honeybees were held overnight in insect cages with food and water freely available, in an environmentally controlled room on a light cycle similar to the ambient cycle at the time of the assay. For conditioning procedures, all tests were done in an odorant delivery apparatus set inside a fume hood. The apparatus comprised a set of open-ended, horizontal, 3 cm diameter by 10 cm long plastic tubes. Each tube was designed where a honeybee could be positioned at the distal end of a tube, with the opening at the other end of the tube located proximal to an inlet of the fume hood. To deliver an odorant, room air was pumped by a diaphragm pump through a particle filter via 0.25 inch plastic tubing at approximately 0.7 m/sec. The air flow passes into the headspace above an odorant (0.5% [v/v]2-heptanone dissolved in odorless light paraffin oil) contained in a 100 mL bottle. The headspace air then passes through another plastic tube to a manifold of 4-way valves, each of which was attached near the proximal end of a plastic tube containing a bee. Each bee was exposed separately for a desired time period to the odorant by opening and closing the appropriate valve. When each valve was closed, the odor was flushed away immediately by the continuous fume hood air stream. To train a honeybee to respond to a conditioned and unconditioned stimuli, bees were placed, without anesthesia, in individual 1.5 mL micro-centrifuge holding tubes and held overnight without access to food or water. The holding tubes containing the starved bees were placed in racks in groups of eight. One rack at a time was placed behind the odorant delivery apparatus so that each bee's head is centered at the distal end of a horizontal plastic tube. Each bee was exposed to the 2-heptanone odorant alone for four seconds, and then while being fed an 80% sucrose solution for and additional three seconds. The sucrose solution was delivered on a piece of saturated filter paper held in forceps. […] Positive and negative responses were recorded. A positive PER was scored when a bee extended its proboscis before the sucrose appeared. In a typical trial, 48 individual bees were subjected to conditioning. Six rounds of training were done before testing began, and typically a majority of the bees were successfully conditioned by the second or third round of training. After conditioning, honeybees were tested with the candidate compounds the same day or on the following day or, most commonly, both. When held overnight, bees were fed with sucrose and kept in their holding tubes. When tested the day after training, bees were given one or more rounds of conditioning with 2-heptatone to refresh their memories. Candidate compounds stocks were made at 5% (w/v) in polyoxyethylene octyl phenyl ether (TRITON® X-100), a non-ionic detergent/surfactant, and stored at 4° C. This detergent is similar to substances used as carriers for a variety of commercial pest-control agents, can act as a solvent for both hydrophilic and hydrophobic substances, and is itself nearly odorless. […]
# [2] = tested on: Apis mellifera Carniolan foraging worker honeybees; assay: choice test in a free-flight box apparatus; type: in vivo; settings: for Z-score: Z-test (alpha=10%) versus control likelihood 47.5%, critical Z-score 1.282, positive value attractant, negative repellant; for nP (number of tests a honeybee returned to a preferred test dish): candidate compound 0.05-0.5% on filter paper below honey dish, out of n total tests; for P (probability that a honeybee will return to a test dish, nP/n): compared to control likelihood of 47.5% without compound
# Source text: To determine whether living honeybees will choice to move towards a source of a candidate compound, these compounds will be assayed using a choice test in a free-flight box apparatus.
# All tests will be done in a free-flight box apparatus. The apparatus comprises a 244 cm long×46 cm deep×30 cm high clear plastic box including two equally-sized independent testing chambers, each with 10 cm diameter air inlets that admit filtered room air, separated by a smaller central chamber with a screened air outlet to each testing chamber. Air can be pulled through the sealed box via a 10 cm diameter duct from the air outlet using an AQE Fume Fighter 500 fume extractor (BPA Air Quality Solutions, LLC, Charleston, S.C.), which removes the test odors using activated charcoal and HEPA filters. The box is housed in an environmentally controlled room with overhead illumination timed to correspond to the current ambient light cycle including 2 additional sets of lights timed to approximate crepuscular lighting conditions. The bottom of the apparatus will be lined with clean absorbent paper marked with a 4×9 grid pattern, forming 12 cm×12 cm squares with marked coordinates.
# Apis mellifera Carniolan foraging worker honeybees will be obtained from a local apiary (typically 60 bees per shipment). Thirty honeybees will be put into each testing chamber and will be allowed to acclimate for 24 hours with food and water freely available. At the beginning of each test day all food will be removed from the test chamber, but water will be continually available throughout all tests. For each test, approximately 0.3 g of organic, raw orange blossom honey will be added to each clean small plastic weigh boat (Cole-Palmer). The honey boats will be placed in small plastic culture dishes, which will be distributed in the marked squares in the chambers. The positions of the dishes on the grid for a set of trials was chosen to avoid bees' preferred resting area so that they will have to find the food actively, but the same dish positions will be maintained for a given set of trials. We will use seven dishes of honey: six to which the bees will have access and a seventh that will have a screened lid. The honey in each boat was weighed on an analytical balance before and after the test, with the screened sample as a control for evaporative loss. The fume extractor was left off during the experimental trails, and was turned on to clear the air after the test dishes were covered and removed from the chamber at the end of each trial.
# Based on the observation that bees tend to return to dishes in the same position where they have fed before, each set of trials with each group of bees began with “Pattern Identification” tests to see which dishes lose the most weight, reflecting the most feeding. Once bees are consuming an acceptable amount in 10-15 min, typically in 1-2 trials, a set of test compound trials will begin. The test compound will be pipetted onto pieces of filter paper placed on the dish bottom below the boat containing a fresh, weighed honey sample so that the test compound will be inaccessible to the bees. We used 2 μL of a candidate compound at a concentration of 0.05-0.5%, in Triton X-100 or paraffin oil, on each of four pieces of filter paper per dish. The test-solution dishes will be set at the same positions as the one or two dishes favored in the preceding Pattern Identification trial. To eliminate interference from the solvent, the other dishes without the test substance will contain the same volume of the appropriate solvent on filter papers as the test solution dishes. The bees will be allowed to feed for 10-15 minutes. Bee movements will be recorded by a small, wide-angle digital video camcorder (HD Hero 960; GoPro, Halfmoon Bay, Calif.) placed on a tripod in front of the test chamber. […]
# [3] = cited from earlier work
Structure (SMILES),OBP2 binding characteristic of compound (OBP2),2-heptanone positive bees testing positive to compound [1] [%],Z-score [2],nP (number of tests a honeybee returned to a preferred test dish) [2],"P (probability that a honeybee will return to a test dish, nP/n) [2]",total bees subjected to conditioning that exhibited a PER with the 2-heptanone positive control ([1]; 0.5% 2-heptanone in paraffin oil),solubility in alcohol or ether ([3]; alcohol or ether),solubility in water ([3]; water)
"COc1ccc(CCC(C)NN2CCOCC2)cc1 (centres unmarked) [Candidate Compound 65, N-[3-(4-methoxyphenyl)-1-methylpropyl]-4-morpholinamine]","Moderate (Moderate, indicates that 50% or less of the compound bound to OBP2.)",7.6,–,–,–,–,–,–
"COc1ccc(C2SCC(=O)N2CCc2ccccc2)cc1 (centres unmarked) [Candidate Compound 63, 2-(4-methoxyphenyl)-3-(2-phenylethyl)-1,3-thiazolidin-4-one]","Moderate (Moderate, indicates that 50% or less of the compound bound to OBP2.)",21.4,0.394,32,0.5,–,–,–
"O=C(NC(=S)N1CCCc2ccccc21)c1ccccc1 [Candidate Compound 62, N-(3,4-dihydro-1(2H)-quinolinylcarbonothioyl)benzamide]","Moderate (Moderate, indicates that 50% or less of the compound bound to OBP2.)",23.6,–,–,–,–,–,–
"CCOc1cc(C)nc(-c2ccccc2O)n1 [Candidate Compound 64, 2-(4-ethoxy-6-methyl-2-pyrimidinyl)phenol]","Moderate (Moderate, indicates that 50% or less of the compound bound to OBP2.)",21.7,−3.043,16,0.276,–,–,–
"CCOC(=O)c1c(NC(=O)C(C)(C)C)sc2c1CCCC2 [Candidate Compound 69, ethyl 2-[(2,2-dimethylpropanoyl)amino]-4,5,6,7-tetrahydro-1-benzothiophene-3-carboxylate]","Moderate (Moderate, indicates that 50% or less of the compound bound to OBP2.)",6.5,–,–,–,–,–,–
"Nc1c(C(=O)c2ccccc2)sc2nc(-c3ccccc3)ccc12 [Candidate Compound 76, (3-amino-6-phenylthieno[2,3-b]pyridin-2-yl)(phenyl)methanone]","Moderate (Moderate, indicates that 50% or less of the compound bound to OBP2.)",11.9,–,–,–,–,–,–
"C=CCOc1cc(C)nc(-c2ccccc2O)n1 [Candidate Compound 104, 2-[4-(allyloxy)-6-methyl-2-pyrimidinyl]phenol]","Moderate (Moderate, indicates that 50% or less of the compound bound to OBP2.)",27.9,–,–,–,–,–,–
"CCCCCC(C)=O [2-heptanone, 2-Heptanone]",–,–,–,–,–,about half,soluble,very slightly soluble
